In test [1] the target is T1, recombinant N-terminal GST-tagged human Rho kinase 2 (ROCK2, amino acids 1-552) (Homo sapiens, UniProt O75116).
T1 construct: human Rho kinase 2 (ROCK2, amino acids 1-552, Invitrogen Inc); purchased Invitrogen Inc. PV3759
The test can be described thus: In vitro Rho kinase assay (luciferase-based ATP consumption), ROCK2. In kind it is biochemical. The conditions noted are these: 3 μM ATP, S6 peptide substrate, 30° C. for 2 hours; read-out: ROCK 2 IC50. The procedure:
(§1) In Vitro Rho Kinase Assay
(§2) Rho kinase biochemical assays described below depend on firefly luciferase-based, indirect measurement of total ATP consumption by the kinase following incubation with substrate and ATP. […] The plate is centrifuged for 30 seconds at approximately 200×g. 240 nl of test compound in DMSO is dispensed to each well by passive pin transfer. The lag phase of this in vitro kinase reaction permits addition of compounds soon after the reaction initiates. The reaction is allowed to incubate at 30° C. for 2 hours. The assay plates are sealed and maintained in a humidified environment. […] After an additional 10 minute incubation at room temperature (about 22° C.), luminescence activity is measured on a Molecular Devices Analyst multi-mode plate reader or other suitable plate reader. Kinase inhibition results in less ATP consumption, and therefore increased luminescence signal. Negative control activity is measured with DMSO lacking any test compound. The positive control is 2-methyl-1-(4-methylisoquinolin-5-ylsulfonyl)perhydro-1,4-diazepine hydrochloride (aka H-1152P, HCl salt). Efficacy is measured as a percentage of positive control activity.

The target in test [2] is T2, recombinant N-terminal GST-tagged human Rho kinase 1 (ROCK1, amino acids 1-535) (Homo sapiens, UniProt Q13464).
T2 construct: human Rho kinase 1 (ROCK1, amino acids 1-535, Invitrogen Inc); purchased Invitrogen Inc. PV-3691
T2 sequence (Q13464 1-535): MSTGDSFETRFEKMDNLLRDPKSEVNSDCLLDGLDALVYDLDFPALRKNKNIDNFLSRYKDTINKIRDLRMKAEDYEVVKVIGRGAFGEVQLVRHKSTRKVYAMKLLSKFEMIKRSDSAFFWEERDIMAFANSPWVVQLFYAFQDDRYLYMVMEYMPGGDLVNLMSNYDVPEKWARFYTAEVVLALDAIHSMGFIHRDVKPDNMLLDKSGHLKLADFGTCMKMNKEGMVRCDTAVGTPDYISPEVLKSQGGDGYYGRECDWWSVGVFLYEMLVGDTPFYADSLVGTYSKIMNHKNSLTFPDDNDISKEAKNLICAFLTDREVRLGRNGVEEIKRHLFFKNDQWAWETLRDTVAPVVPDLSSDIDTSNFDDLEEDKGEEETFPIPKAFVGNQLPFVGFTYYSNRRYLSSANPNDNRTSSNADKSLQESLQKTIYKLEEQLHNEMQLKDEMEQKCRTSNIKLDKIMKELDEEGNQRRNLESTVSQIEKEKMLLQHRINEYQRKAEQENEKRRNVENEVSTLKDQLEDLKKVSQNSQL
Description: In vitro Rho kinase assay (luciferase-based ATP consumption), ROCK1. In kind it is biochemical. Conditions: 3 μM ATP, S6 peptide substrate, 30° C. for 2 hours; read-out: ROCK 1 IC50. The protocol: as §1, §2

Each structure is given as a SMILES string. pIC50: −log10 of the molar value.

The record followed here is patent US20090318485A1, “NOVEL INHIBITORS OF RHO KINASE” (KALYPSYS, INC., priority 2006, published 2009).

T1 sequence (O75116 1-552): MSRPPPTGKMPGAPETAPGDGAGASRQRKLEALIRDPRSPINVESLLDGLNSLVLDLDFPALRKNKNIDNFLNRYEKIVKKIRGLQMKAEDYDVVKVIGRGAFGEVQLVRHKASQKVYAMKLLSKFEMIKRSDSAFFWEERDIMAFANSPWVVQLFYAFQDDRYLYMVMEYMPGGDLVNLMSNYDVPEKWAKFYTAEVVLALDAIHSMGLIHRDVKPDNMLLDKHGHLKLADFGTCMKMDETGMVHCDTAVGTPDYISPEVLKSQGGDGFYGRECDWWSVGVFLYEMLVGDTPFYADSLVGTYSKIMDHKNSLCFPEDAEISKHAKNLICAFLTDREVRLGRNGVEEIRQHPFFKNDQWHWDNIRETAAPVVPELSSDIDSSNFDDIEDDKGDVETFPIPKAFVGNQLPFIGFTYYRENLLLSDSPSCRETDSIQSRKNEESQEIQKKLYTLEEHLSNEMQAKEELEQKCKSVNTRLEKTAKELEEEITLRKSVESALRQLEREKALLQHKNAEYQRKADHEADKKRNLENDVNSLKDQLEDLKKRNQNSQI

With `C=CCc1cccc2cc(C(N)=O)c(=N)oc12` [Example 1], the pIC50 in test [1] and in test [2] was at least 5.30 each time.

Take `Cc1cc(C)c2c(N)c(C(N)=O)sc2n1` [Example 2]: the pIC50 in test [1] and in test [2] was at least 5.30 throughout.

On to `CC(C)c1cc2cc(/C=C/C(=O)O)c(O)cc2o1` [Example 3], for which the pIC50 in test [1] and in test [2] was at least 5.30 each time.

As for `CN(C)CCN(Cc1ccccc1)Cc1cc(-c2ccnc3cc(Cl)ccc23)ccc1O` [Example 4], the figures for the pIC50 in test [1] and in test [2] were at least 5.30 and below 5.30, respectively.

Turning to `CSc1nc(-c2ccncc2)nc(N)c1C#N` [Example 5], the pIC50 in test [1] and in test [2] was at least 5.30 in each case.

For the molecule `CC(C)(CO)CNc1nc(-c2ccncc2)cnc1N` [Example 6], the pIC50 in test [1] and in test [2] was at least 5.30 each time.

Take `CC(CCc1ccc(O)cc1)Nc1ccc2[nH]ncc2c1` (stereo not drawn) [Example 7]: the pIC50 – broadly, −log10 of the IC50, conventionally taken in molar units – in test [1] is below 5.30; in test [2], at least 5.30.

For `CC(OC(=O)c1ccc(O)cc1)C(=O)Nc1ccc(Cl)c(Cl)c1` (stereo not drawn) [Example 8], the negative-log IC50 (pIC50) in test [1] and in test [2] was at least 5.30 throughout.

In the case of `C=CCN(CC=C)S(=O)(=O)c1ccc2nc(N)sc2c1` [Example 9], the pIC50 in test [1] and in test [2] was at least 5.30 each time.

In the case of `Cc1cc(=O)oc2cc(OC(C)C(=O)Nc3nccs3)ccc12` (stereo not drawn) [Example 10], in test [2], the negative-log IC50 (pIC50) is below 5.30.

On to `O=C1NC(=Cc2ccc(O)c(Br)c2)C(=O)N1Cc1ccccc1F` [Example 11], for which the pIC50 in test [1] and in test [2] was at least 5.30 throughout.

On to `CCOC(=O)c1nnn(-c2nonc2N)c1-c1ccccc1Cl` [Example 12], for which the pIC50 in test [1] and in test [2] was below 5.30 each time.

Take `CC1CCC(C(=O)NC(C(=O)Nc2ccncc2)C(C)C)CC1` (stereo not drawn) [Example 13]: the pIC50 in test [1] and in test [2] was at least 5.30 in each case.

On to `Clc1ccc(Cn2cc(-c3ccncc3)cn2)c(Cl)c1` [Example 15], for which the negative-log IC50 (pIC50) in test [1] and in test [2] was at least 5.30 each time.
